Experimental data reported in patent US9034921B2, “Diphenylmethane derivatives as SGLT2 inhibitors” (GREEN CROSS CORPORATION, priority 2011, dated 2015).

Target: human SGLT2 (Homo sapiens (Human), UniProt P31639)
Test: Inhibitory effects on human SGLT2 activities (14C-AMG uptake, sodium-dependent glucose transport assay)
Type: cell-based
Conditions: CHO cells stably expressing hSGLT2, 37° C., 2 h, single determinations
From the text: Test 1: Cloning and Cell Line Construction for Human SGLT2
Human SGLT2 (hSGLT2) gene was amplified by PCR from cDNA-Human Adult Normal Tissue Kidney (Invitrogen). The hSGLT2 sequence was cloned into pcDNA3.1(+) for mammalian expression and stably transfected into chinese hamster ovary (CHO) cells. SGLT2-expressing clones were selected based on resistance to G418 antibiotic (Geneticin) and activity in the ^14C-α-methyl-D-glucopyranoside (^14C-AMG) uptake assay.
Test 2: Inhibitory Effects on Human SGLT2 Activities
For sodium-dependent glucose transport assay, cells expressing hSGLT2 were seeded into a 96-well culture plate at a density of 5×10^4 cells/well in RPMI medium 1640 containing 10% fetal bovine serum. The cells were used 1 day after plating. They were incubated in pretreatment buffer (10 mM HEPES, 5 mM Tris, 140 mM choline chloride, 2 mM KCl, 1 mM CaCl2, and 1 mM MgCl2, pH 7.4) at 37° C. for 10 min. They were then incubated in uptake buffer (10 mM HEPES, 5 mM Tris, 140 mM NaCl, 2 mM KCl, 1 mM CaCl2, 1 mM MgCl2, and 1 mM ^14C-nonlabeled AMG pH 7.4) containing ^14C-labeled AMG (8 μM) and the inventive compound or dimethyl sulfoxide (DMSO) vehicle at 37° C. for 2 h. Cells were washed twice with washing buffer (pretreatment buffer containing 10 mM AMG at room temperature) and then the radioactivity was measured using a liquid scintillation counter. IC50 was determined by nonlinear regression analysis using GraphPad PRISM [Katsuno, K. et al. J. Pharmacol. Exp. Ther. 2007, 320, 323-330; Han, S. et al. Diabetes, 2008, 57, 1723-1729].

human SGLT2, sequence (P31639 whole entry): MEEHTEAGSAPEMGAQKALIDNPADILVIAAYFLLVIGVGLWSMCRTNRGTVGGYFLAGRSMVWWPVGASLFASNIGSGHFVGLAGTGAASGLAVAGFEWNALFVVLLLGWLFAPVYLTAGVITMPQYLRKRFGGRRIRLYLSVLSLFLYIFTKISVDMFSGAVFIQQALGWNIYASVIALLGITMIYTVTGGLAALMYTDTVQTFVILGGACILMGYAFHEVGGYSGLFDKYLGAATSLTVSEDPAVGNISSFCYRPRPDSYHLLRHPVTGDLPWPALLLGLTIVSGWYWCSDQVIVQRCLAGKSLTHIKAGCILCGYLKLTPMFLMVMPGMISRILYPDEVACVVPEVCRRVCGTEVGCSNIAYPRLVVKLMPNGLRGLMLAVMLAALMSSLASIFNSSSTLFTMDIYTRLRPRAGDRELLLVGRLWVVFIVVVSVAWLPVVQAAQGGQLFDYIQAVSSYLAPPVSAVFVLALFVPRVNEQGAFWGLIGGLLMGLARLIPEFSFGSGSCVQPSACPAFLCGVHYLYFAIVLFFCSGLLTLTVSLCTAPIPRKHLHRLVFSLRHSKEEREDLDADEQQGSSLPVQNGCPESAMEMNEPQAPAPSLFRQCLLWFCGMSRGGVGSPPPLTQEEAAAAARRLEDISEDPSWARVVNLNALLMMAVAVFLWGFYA

Row | SMILES | IC50
1 | CCOc1ccc(Cc2cc([C@@H]3O[C@H](CO)[C@@H](O)[C@H](O)[C@H]3O)c3c(c2Cl)OCCCO3)cc1 [Example E164, (2S,3R,4R,5S,6R)-2-(9-Chloro-8-(4-ethoxybenzyl)-3,4-dihydro-2H-benzo[b][1,4]dioxepin-6-yl)-6-(hydroxymethyl)tetrahydro-2H-pyran-3,4,5-triol] | 1.28 nM
2 | CC(F)(F)c1ccc(Cc2cc([C@@H]3O[C@H](CO)[C@@H](O)[C@H](O)[C@H]3O)c3c(c2Cl)OCC3)cc1 [Example E177, (2S,3R,4R,5S,6R)-2-(7-Chloro-6-(4-(1,1-difluoroethyl)benzyl)-2,3-dihydrobenzofuran-4-yl)-6-(hydroxymethyl)tetrahydro-2H-pyran-3,4,5-triol] | 0.91 nM
3 | OC[C@H]1O[C@@H](c2cc(Cc3ccc(C4CC4)cc3)c(Cl)c3c2CCCO3)[C@H](O)[C@@H](O)[C@@H]1O [Example E155, (2S,3R,4R,5S,6R)-2-(8-Chloro-7-(4-cyclopropylbenzyl)chroman-5-yl)-6-(hydroxymethyl)tetrahydro-2H-pyran-3,4,5-triol] | 0.881 nM
4 | OC[C@H]1O[C@@H](c2cc(Cc3ccc(C4CC4)cc3)c(Cl)c3c2OCCC3)[C@H](O)[C@@H](O)[C@@H]1O [Example E121, (2S,3R,4R,5S,6R)-2-(5-Chloro-6-(4-cyclopropylbenzyl)chroman-8-yl)-6-(hydroxymethyl)tetrahydro-2H-pyran-3,4,5-triol] | 0.851 nM
5 | CCOc1ccc(Cc2cc([C@@H]3O[C@H](CO)[C@@H](O)[C@H](O)[C@H]3O)c3c(c2Br)CCC3)cc1 [Example E003, (2S,3R,4R,5S,6R)-2-(7-Bromo-6-(4-ethoxybenzyl)-2,3-dihydro-1H-inden-4-yl)-6-(hydroxymethyl)tetrahydro-2H-pyran-3,4,5-triol] | 0.738 nM
6 | CCOc1ccc(Cc2cc([C@@H]3O[C@H](CO)[C@@H](O)[C@H](O)[C@H]3O)c3c(c2Cl)CC(C)O3)cc1 (stereo partly drawn) [Example E011, (2S,3R,4R,5S,6R)-2-(4-Chloro-5-(4-ethoxybenzyl)-2-methyl-2,3-dihydrobenzofuran-7-yl)-6-(hydroxymethyl)tetrahydro-2H-pyran-3,4,5-triol] | 1.28 nM
7 | CCOc1ccc(Cc2cc([C@@H]3O[C@H](CO)[C@@H](O)[C@H](O)[C@H]3O)cc(-c3ccccc3Cl)c2C)cc1 [Example E086, (2S,3R,4R,5S,6R)-2-(6′-Chloro-5-(4-ethoxybenzyl)-6-methylbiphenyl-3-yl)-6-(hydroxymethyl)-tetrahydro-2H-pyran-3,4,5-triol] | 15.4 nM
8 | CCc1ccc(Cc2cc([C@@H]3O[C@H](CO)[C@@H](O)[C@H](O)[C@H]3O)c3c(c2Cl)CCCO3)cc1 [Example E017, (2S,3R,4R,5S,6R)-2-(5-Chloro-6-(4-ethylbenzyl)chroman-8-yl)-6-(hydroxymethyl)tetrahydro-2H-pyran-3,4,5-triol] | 0.845 nM

More lines, in order of falling IC50, values ahead:

Row | IC50 | SMILES
9 | 5.05 nM | OC[C@H]1O[C@@H](c2cc(Cc3ccc(OC4COC4)cc3)c(Cl)c3c2CCO3)[C@H](O)[C@@H](O)[C@@H]1O [Example E204, (2S,3R,4R,5S,6R)-2-(7-Chloro-6-(4-(oxetan-3-yloxy)benzyl)-2,3-dihydrobenzofuran-4-yl)-6-(hydroxymethyl)tetrahydro-2H-pyran-3,4,5-triol]
10 | 3.22 nM | CN(C)c1ccc(Cc2cc([C@@H]3O[C@H](CO)[C@@H](O)[C@H](O)[C@H]3O)c3c(c2Cl)CCO3)cc1 [Example E197, (2S,3R,4R,5S,6R)-2-(4-Chloro-5-(4-(dimethylamino)benzyl)-2,3-dihydrobenzofuran-7-yl)-6-(hydroxymethyl)tetrahydro-2H-pyran-3,4,5-triol]
11 | 1.82 nM | OC[C@H]1O[C@@H](c2cc(Cc3ccc(Cl)cc3)c(Cl)c3c2OCC3)[C@H](O)[C@@H](O)[C@@H]1O [Example E123, (2S,3R,4R,5S,6R)-2-(4-Chloro-5-(4-chlorobenzyl)-2,3-dihydrobenzofuran-7-yl)-6-(hydroxymethyl)tetrahydro-2H-pyran-3,4,5-triol]
12 | 1.76 nM | CCc1ccc(Cc2cc([C@@H]3O[C@H](CO)[C@@H](O)[C@H](O)[C@H]3O)c3c(c2Cl)C(C)(C)CO3)cc1 [Example E217, (2S,3R,4R,5S,6R)-2-(4-Chloro-5-(4-ethylbenzyl)-3,3-dimethyl-2,3-dihydrobenzofuran-7-yl)-6-(hydroxymethyl)tetrahydro-2H-pyran-3,4,5-triol]
13 | 1.38 nM | C=Cc1ccc(Cc2cc([C@@H]3O[C@H](CO)[C@@H](O)[C@H](O)[C@H]3O)c3c(c2Cl)CCO3)cc1 [Example E119, (2S,3R,4R,5S,6R)-2-(4-Chloro-5-(4-vinylbenzyl)-2,3-dihydrobenzofuran-7-yl)-6-(hydroxymethyl)tetrahydro-2H-pyran-3,4,5-triol]
14 | 1.13 nM | CC1Cc2c([C@@H]3O[C@H](CO)[C@@H](O)[C@H](O)[C@H]3O)cc(Cc3ccc(C4CC4)cc3)c(Cl)c2O1 (stereo partly drawn) [Example E138, (2S,3R,4R,5S,6R)-2-(7-Chloro-6-(4-cyclopropylbenzyl)-2-methyl-2,3-dihydrobenzofuran-4-yl)-6-(hydroxymethyl)tetrahydro-2H-pyran-3,4,5-triol]
15 | 1.11 nM | CN(C)c1ccc(Cc2cc([C@@H]3O[C@H](CO)[C@@H](O)[C@H](O)[C@H]3O)c3c(c2Cl)OCC3)cc1 [Example E190, (2S,3R,4R,5S,6R)-2-(7-Chloro-6-(4-(dimethylamino)benzyl)-2,3-dihydrobenzofuran-4-yl)-6-(hydroxymethyl)tetrahydro-2H-pyran-3,4,5-triol]
16 | 0.86 nM | Cc1c(Cc2ccc3c(c2)OCCO3)cc([C@@H]2O[C@H](CO)[C@@H](O)[C@H](O)[C@H]2O)c2c1CCC2 [Example E107, (2S,3R,4R,5S,6R)-2-(6-((2,3-Dihydrobenzo[b][1,4]dioxin-6-yl)methyl)-7-methyl-2,3-dihydro-1H-inden-4-yl)-6-(hydroxymethyl)tetrahydro-2H-pyran-3,4,5-triol]
17 | 0.783 nM | CCOc1ccc(Cc2cc([C@@H]3O[C@H](SC)[C@@H](O)[C@H](O)[C@H]3O)c(OC)cc2Cl)cc1 [Example E111, (2S,3R,4R,5S,6R)-2-(4-Chloro-5-(4-ethoxybenzyl)-2-methoxyphenyl)-6-(methylthio)tetrahydro-2H-pyran-3,4,5-triol]
18 | 0.651 nM | OC[C@H]1O[C@@H](c2cc(Cc3ccc(C4CC4)cc3)c(Cl)c3c2OCCO3)[C@H](O)[C@@H](O)[C@@H]1O [Example E163, (2S,3R,4R,5S,6R)-2-(8-Chloro-7-(4-cyclopropylbenzyl)-2,3-dihydrobenzo[b][1,4]dioxin-5-yl)-6-(hydroxymethyl)tetrahydro-2H-pyran-3,4,5-triol]
19 | 0.404 nM | CCc1ccc(Cc2cc([C@@H]3O[C@H](CO)[C@@H](O)[C@H](O)[C@H]3O)c3c(c2Cl)OCO3)cc1 [Example E162, (2S,3R,4R,5S,6R)-2-(7-Chloro-6-(4-ethylbenzyl)benzo[d][1,3]dioxol-4-yl)-6-(hydroxymethyl)tetrahydro-2H-pyran-3,4,5-triol]
20 | 0.308 nM | CCOc1ccc(Cc2cc([C@@H]3O[C@H](SC)[C@@H](O)[C@H](O)[C@H]3O)cc(OC)c2Cl)cc1 [Example E114, (2S,3R,4R,5S,6R)-2-(4-Chloro-3-(4-ethoxybenzyl)-5-methoxyphenyl)-6-(methylthio)tetrahydro-2H-pyran-3,4,5-triol]
